Measurements as given in article PMC6272576, “PLS-Prediction and Confirmation of Hydrojuglone Glucoside as the Antitrypanosomal Constituent of Juglans Spp” (Molecules, 2015).
Like-named read-outs stand apart in the source and are kept apart here.

Columns and labels:
Type in all cases: cell-based
[1] = tested on: Trypanosoma brucei rhodesiense strain STIB 900 (bloodstream trypomastigotes); test: microbe, parasite or virus in culture; conditions: for IC50: read-out: IC50 TB
[2] = tested on: Trypanosoma cruzi strain Tulahuen C2C4 (intracellular amastigotes in L6 cells); test: in vitro growth inhibition of T. cruzi; conditions: for SI TC: ratio of cytotoxic (L6) over antiparasitic IC50
[3] = tested on: Leishmania donovani strain MHOM/ET/67/L82 (axenic amastigotes); test: in vitro growth inhibition of L. donovani; conditions: for IC50: read-out: IC50 LD
[4] = tested on: L6 rat skeletal myoblasts; test: cytotoxicity against mammalian cells; conditions: read-out: IC50 L6
[5] = Trypanosoma brucei, pure compound
[6] = ratio of cytotoxic (L6) over antiparasitic IC50
[7] = Trypanosoma cruzi, TULAHUEN, L6, pure compound, read-out: IC50 TC
[8] = Leishmania donovani, pure compound
[9] = Rattus norvegicus, Myoblast, cytotoxicity, pure compound
[10] = pure compound, read-out: IC50 TC

Structure (SMILES) | IC50 [1, 5] [µM] | SI TB [1, 6] | SI TC [2] | SI LD [3, 6] | IC50 [2, 7] [µM] | IC50 [3, 8] [nM] | IC50 [4, 9] [µM] | also measured
CC(C)=CC[C@@H](O)C1=CC(=O)c2c(O)ccc(O)c2C1=O [Shikonin] | 0.03 | 2.1 | 0.2 | 0.5 | – | – | – | IC50 ([2]; Trypanosoma cruzi, TULAHUEN, L6, read-out: IC50 TC): 0.27 µM; IC50 ([3]; Leishmania donovani): 120 nM; IC50 ([4]; Rattus norvegicus, Myoblast): 0.06 µM
O=C(Cn1ccnc1[N+](=O)[O-])NCc1ccccc1 [Benznidazole] | – | – | – | – | 2.33 | – | – | –
CC1=CC(=O)c2c(O)cccc2C1=O [Plumbagin] | 0.49 | 5.9 | 0.8 | 3.3 | 3.59 | 880 | 2.87 | –
O=C1C=C(O)C(=O)c2ccccc21 [Lawson] | – | 0.2 | 0.6 | 10.3 | – | – | – | IC50 ([1]; pure compound): 101 µM; IC50 [2, 10]: 37.4 µM; IC50 ([3]; pure compound): 1990 nM; IC50 ([4]; cytotoxicity, pure compound): 20.6 µM
CCCCCCCCCCCCCCCCOP(=O)([O-])OCC[N+](C)(C)C [Miltefosine] | – | – | – | – | – | 180 | – | –
O=C1C(O)=C(C2=C(O)C(=O)c3ccccc3C2=O)C(=O)c2ccccc21 [2,2′-bis-(3-Hydroxy-1,4-naphthoquinone)] | – | 0.9 | 0.3 | 8.4 | – | – | – | IC50 ([1]; pure compound): 68.8 µM; IC50 [2, 10]: 237 µM; IC50 ([3]; pure compound): 7340 nM; IC50 ([4]; cytotoxicity, pure compound): 61.6 µM
Nc1nc(N)nc(Nc2ccc([As]3SCC(CO)S3)cc2)n1 (stereo not drawn) [Melarsoprol] | 0.005 | – | – | – | – | – | – | –
O=C1C=CC(=O)c2c(O)cccc21 [Juglone] | – | – | – | – | > 100 | – | 21 | SI TB [1]: 13.0; IC50 ([1]; Trypanosoma brucei): 1.62 µM; SI LD [3]: 10.4; IC50 ([3]; Leishmania donovani): 2020 nM
OC[C@H]1O[C@@H](Oc2ccc(O)c3cccc(O)c23)[C@H](O)[C@@H](O)[C@@H]1O [Compound 1, 4-O-β-D-Glucopyranosyl-1,4,5-trihydroxynaphthalene] | 6.1 | – | 0.7 | 7.3 | 169 | 16700 | 122 | SI TB [1]: 20.0; IC50 ([1]; Trypanosoma brucei): 6.12 µM; IC50 ([3]; pure compound, listed as Hydrojuglone glucoside (1)): 16600 nM; SI LD ([3]; ratio of cytotoxic (L6) over antiparasitic IC50, listed as Hydrojuglone glucoside (1)): 7.4; IC50 ([4]; cytotoxicity, pure compound, listed as Hydrojuglone glucoside (1)): 122 µM
O=C1C=CC(=O)c2ccccc21 [1,4-Naphthoquinone] | 0.58 | 11.1 | 0.7 | 2.7 | 9.24 | 2380 | 6.39 | –
OC[C@H]1O[C@@H](Oc2ccc(O)cc2)[C@H](O)[C@@H](O)[C@@H]1O [Arbutin (1,4-benzoquinone glucoside), Arbutin] | 236 | >1.5 | >1.5 | – | 244 | > 367000 | > 367 | –
COc1cc([C@@H]2c3cc4c(cc3[C@H](O)[C@H]3COC(=O)[C@H]23)OCO4)cc(OC)c1OC [Podophyllotoxin] | – | – | – | – | – | – | 0.014 | –
CC(C)=CCC1=C(O)C(=O)c2ccccc2C1=O [Lapachol] | 16.4 | 1.6 | 1.5 | 8.0 | 17.6 | 3330 | 26.6 | –
